Experiment in all cases: cell-based
What all share (design): species or system Hana3A

Test [1] concerns the target T1, hOR8B2 (Homo sapiens, UniProt Q96RD0).
T1 sequence (Q96RD0 1-313): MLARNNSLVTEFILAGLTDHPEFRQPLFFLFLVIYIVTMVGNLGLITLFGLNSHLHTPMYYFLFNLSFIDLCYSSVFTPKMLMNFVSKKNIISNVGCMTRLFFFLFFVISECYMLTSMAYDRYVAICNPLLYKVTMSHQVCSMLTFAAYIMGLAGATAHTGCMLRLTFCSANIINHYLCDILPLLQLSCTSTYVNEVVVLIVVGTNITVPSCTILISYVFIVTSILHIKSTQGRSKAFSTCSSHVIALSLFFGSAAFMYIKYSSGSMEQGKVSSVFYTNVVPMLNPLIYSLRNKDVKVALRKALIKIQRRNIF

For test [2], the target named is T2, hOR8K5 (Homo sapiens, UniProt Q8NH50).
T2 sequence (Q8NH50 1-307): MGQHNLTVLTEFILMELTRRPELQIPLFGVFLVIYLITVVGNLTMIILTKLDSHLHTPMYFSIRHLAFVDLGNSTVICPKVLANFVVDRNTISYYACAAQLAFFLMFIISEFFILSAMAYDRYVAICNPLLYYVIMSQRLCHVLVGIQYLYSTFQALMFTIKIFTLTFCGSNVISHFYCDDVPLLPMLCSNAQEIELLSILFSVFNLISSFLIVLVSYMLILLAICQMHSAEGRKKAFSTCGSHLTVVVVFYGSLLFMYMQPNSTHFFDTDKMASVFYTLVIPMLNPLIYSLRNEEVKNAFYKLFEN

Test [3] deals with T3, hOR5R1 (Homo sapiens, UniProt Q8NH85).
T3 sequence (Q8NH85 1-324): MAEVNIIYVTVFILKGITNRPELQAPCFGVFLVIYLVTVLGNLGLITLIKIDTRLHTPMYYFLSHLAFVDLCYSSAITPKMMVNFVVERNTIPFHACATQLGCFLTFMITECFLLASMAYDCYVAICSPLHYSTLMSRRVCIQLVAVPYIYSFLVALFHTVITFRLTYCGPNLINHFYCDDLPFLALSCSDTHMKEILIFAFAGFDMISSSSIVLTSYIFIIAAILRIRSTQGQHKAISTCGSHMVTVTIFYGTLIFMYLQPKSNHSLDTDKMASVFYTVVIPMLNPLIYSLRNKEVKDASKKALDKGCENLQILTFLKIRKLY

For test [4], the target named is T4, hOR11H12 (Homo sapiens, UniProt B2RN74).
T4 sequence (B2RN74 1-326): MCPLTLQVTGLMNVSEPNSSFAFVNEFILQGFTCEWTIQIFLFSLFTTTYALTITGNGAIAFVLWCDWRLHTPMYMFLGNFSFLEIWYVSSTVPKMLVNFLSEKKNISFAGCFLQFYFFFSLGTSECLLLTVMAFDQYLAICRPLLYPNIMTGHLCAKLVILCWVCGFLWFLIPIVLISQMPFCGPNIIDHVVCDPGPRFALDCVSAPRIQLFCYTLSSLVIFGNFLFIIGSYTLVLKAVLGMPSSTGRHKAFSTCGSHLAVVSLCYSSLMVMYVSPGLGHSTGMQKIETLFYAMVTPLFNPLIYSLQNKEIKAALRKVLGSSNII

Consider `O=C1CCOc2ccccc21` [4-chromanone], for which the EC50 – broadly, the midpoint of the concentration-response curve – in test [1] is 15 µM; in test [2] it was above 1000 µM; in test [3] it was 218 µM; in test [4], above 1000 µM.

As to `C=C(C)[C@@H]1CC=C(C)C(=O)C1` [R-carvone], the EC50 in test [1] is above 1000 µM; in test [2], 4.5 µM; in test [3], 12 µM; in test [4], 16.3 µM.

`CC(=O)c1ccccc1` [acetophenone]: the half-maximal effective concentration (EC50) in test [1] is above 1000 µM; in test [2], above 1000 µM; in test [3] it was 3.4 µM; in test [4], 4.7 µM.

As to `O=c1ccc2ccccc2o1` [coumarin], the EC50 in test [1] is above 1000 µM; in test [2] it was above 1000 µM; in test [3], 10.2 µM; in test [4], 91.9 µM.

Source of the values: publication doi:10.1101/2020.01.06.895540v1 (biorxiv, 2020).
